One experiment concerns the target T1, CDK2 (Homo sapiens, UniProt P24941).
T1 construct: endogenous in cells; host or cells: MDA-MB-231
Kind of experiment: CDK protein degradation activity (Western blotting), CDK2. The format is cell-based. Conditions: MDA-MB-231 cells, 16 hours, Western blot. In a few lines:
(§1)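 Seed MDA-MB-231 cells; next day add compound to 100 nM, 1 μM or 10 μM final, or DMSO. After 16 h, harvest and lyse in Triton X-100 buffer, run SDS-PAGE, probe for CDK2, CDK9 and tubulin.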
A general note: Immunoblotting shows a protein as a band on a membrane.

The next experiment addresses T2, CDK9 (Homo sapiens, UniProt P50750).
T2 construct: endogenous in cells; host or cells: MDA-MB-231
Kind of experiment: CDK protein degradation activity (Western blotting), CDK9. The format is cell-based. Conditions: MDA-MB-231 cells, 16 hours, Western blot. In a few lines:
as §1

SMILES strings stand for the structures.

T2 sequence (P50750 whole entry): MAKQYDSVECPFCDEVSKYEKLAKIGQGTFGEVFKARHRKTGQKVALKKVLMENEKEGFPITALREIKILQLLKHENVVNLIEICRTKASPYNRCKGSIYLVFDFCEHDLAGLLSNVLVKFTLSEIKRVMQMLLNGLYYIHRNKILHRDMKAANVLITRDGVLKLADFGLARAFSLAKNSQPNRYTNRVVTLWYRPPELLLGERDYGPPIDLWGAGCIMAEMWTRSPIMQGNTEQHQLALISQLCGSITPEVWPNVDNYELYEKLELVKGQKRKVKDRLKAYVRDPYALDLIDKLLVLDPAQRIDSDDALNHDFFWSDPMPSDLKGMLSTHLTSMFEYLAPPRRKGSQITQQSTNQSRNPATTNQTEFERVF

Regarding `O=C1CC[C@H](N2C(=O)c3ccc(N4CCC(C(=O)N5CCN(CCC6CCN(c7ccc(Nc8ncnc9c8ncn9[C@H]8C[C@@H](NC(=O)Cc9ccccc9)C8)cc7)CC6)CC5)CC4)cc3C2=O)C(=O)N1` [Compound 363, N-((1s,3s)-3-(6-((4-(4-(2-(4-(1-(2-(2,6-dioxopiperidin-3-yl)-1,3-dioxoisoindolin-5-yl)piperidin-4-carbonyl)piperazin-1-yl)ethyl)piperidin-1-yl)phenyl)amino)-9H-purin-9-yl)cyclobutyl)-2-phenylacetamide], at CDK2, the “Enzyme degradation CDK2 (% remaining) @ 0.1 μM” value is recorded as 100%, the “Enzyme degradation CDK2 (% remaining) @ 1 μM” value stood at 50% and the “Enzyme degradation CDK2 (% remaining) @ 10 μM” value came to 30%. Moreover, on CDK9, the “Enzyme degradation CDK9 (% remaining) @ 0.1 μM” value is recorded as 40%, the “Enzyme degradation CDK9 (% remaining) @ 1 μM” value was 0% and the “Enzyme degradation CDK9 (% remaining) @ 10 μM” value came to 0%.

On to `Cc1cccc(C(=O)NC2CC(n3cnc4c(NCc5ccc(OCC6CCN(c7ccc8c(c7)C(=O)N([C@H]7CCC(=O)NC7=O)C8=O)CC6)cc5)ncnc43)C2)n1` (stereo partly drawn) [Compound 110, N-((1s,3s)-3-(6-((4-((1-(2-(2,6-dioxopiperidin-3-yl)-1,3-dioxoisoindolin-5-yl)piperidin-4-yl)methoxy)benzyl)amino)-9H-purin-9-yl)cyclobutyl)-6-methylpicolinamide], for which, on CDK2, the “Enzyme degradation CDK2 (% remaining) @ 0.1 μM” value was 100%, the “Enzyme degradation CDK2 (% remaining) @ 1 μM” value is 60% and the “Enzyme degradation CDK2 (% remaining) @ 10 μM” value came to 80%. Also, at CDK9, the “Enzyme degradation CDK9 (% remaining) @ 0.1 μM” value amounted to 90%, the “Enzyme degradation CDK9 (% remaining) @ 1 μM” value is on record as 20% and the “Enzyme degradation CDK9 (% remaining) @ 10 μM” value worked out at 30%.

Take `O=C1CCC(c2ccc(OCC(=O)N3CCC4(CC3)CC(N3CCN(c5ccc(Nc6ncnc7c6ncn7[C@H]6C[C@@H](NC(=O)Cc7ccccc7)C6)cc5)CC3)C4)cc2)C(=O)N1` (stereo partly drawn) [Compound 205, N-((1s,3s)-3-(6-((4-(4-(7-(2-(4-(2,6-dioxopiperidin-3-yl)phenoxy)acetyl)-7-azaspiro[3.5]nonan-2-yl)piperazin-1-yl)phenyl)amino)-9H-purin-9-yl)cyclobutyl)-2-phenylacetamide]: at CDK2, the “Enzyme degradation CDK2 (% remaining) @ 0.1 μM” value was 30/30/30%, the “Enzyme degradation CDK2 (% remaining) @ 1 μM” value is on record as 30/30/30% and the “Enzyme degradation CDK2 (% remaining) @ 10 μM” value is listed as 30/30/30%. In addition, on CDK9, the “Enzyme degradation CDK9 (% remaining) @ 0.1 μM” value was 0/0/0%, the “Enzyme degradation CDK9 (% remaining) @ 1 μM” value was 0/0/0% and the “Enzyme degradation CDK9 (% remaining) @ 10 μM” value is 0/0/0%.

As to `O=C1CC[C@H](N2C(=O)c3ccc(N4CC(C(=O)N5CCN(C6CN(c7ccc(Nc8ncnc9c8ncn9[C@H]8C[C@@H](NC(=O)Cc9ccccc9)C8)cc7)C6)CC5)C4)cc3C2=O)C(=O)N1` [Compound 373, N-((1s,3s)-3-(6-((4-(3-(4-(1-(2-(2,6-dioxopiperidin-3-yl)-1,3-dioxoisoindolin-5-yl)azetidin-3-carbonyl)piperazin-1-yl)azetidin-1-yl)phenyl)amino)-9H-purin-9-yl)cyclobutyl)-2-phenylacetamide], on CDK2, the “Enzyme degradation CDK2 (% remaining) @ 0.1 μM” value is 30/30/30%, the “Enzyme degradation CDK2 (% remaining) @ 1 μM” value is 30/30/30% and the “Enzyme degradation CDK2 (% remaining) @ 10 μM” value is listed as 30/30/30%. Moreover, on CDK9, the “Enzyme degradation CDK9 (% remaining) @ 0.1 μM” value is 40%, the “Enzyme degradation CDK9 (% remaining) @ 1 μM” value is 20% and the “Enzyme degradation CDK9 (% remaining) @ 10 μM” value worked out at 20%.

Take `O=C(Cc1cccc(NC2=CC(=O)N(C3CCC(=O)NC3=O)C2=O)c1)NC[C@H]1CC[C@H](CN2CCN(c3ccc(Nc4ncnc5c4ncn5[C@H]4C[C@@H](NC(=O)Cc5ccccc5)C4)cc3)CC2)CC1` (stereo partly drawn) [Compound 200, 2-(3-((1-(2,6-dioxopiperidin-3-yl)-2,5-dioxo-2,5-dihydro-1H-pyrrol-3-yl)amino)phenyl)-N-(((1r,4r)-4-((4-(4-((9-((1s,3s)-3-(2-phenylacetamido)cyclobutyl)-9H-purin-6-yl)amino)phenyl)piperazin-1-yl)methyl)cyclohexyl)methyl)acetamide]: on CDK2, the “Enzyme degradation CDK2 (% remaining) @ 0.1 μM” value was 100/100/100%, the “Enzyme degradation CDK2 (% remaining) @ 1 μM” value was 100/100/100% and the “Enzyme degradation CDK2 (% remaining) @ 10 μM” value is 100/100/100%. At CDK9, the “Enzyme degradation CDK9 (% remaining) @ 0.1 μM” value is on record as 20/20/20%, the “Enzyme degradation CDK9 (% remaining) @ 1 μM” value is listed as 20/20/20% and the “Enzyme degradation CDK9 (% remaining) @ 10 μM” value is reported as 20/20/20%.

`O=C1CC[C@@H](c2cccc(OCC(=O)N3CCC(CN4CCN(c5ccc(Nc6ncnc7c6ncn7C6CC(NC(=O)Cc7ccccc7)C6)cc5)CC4)CC3)c2)C(=O)N1` (stereo partly drawn) [Compound 225, N-((1s,3s)-3-(6-((4-(4-((1-(2-(3-(2,6-dioxopiperidin-3-yl)phenoxy)acetyl)piperidin-4-yl)methyl)piperazin-1-yl)phenyl)amino)-9H-purin-9-yl)cyclobutyl)-2-phenylacetamide]: at CDK2, the “Enzyme degradation CDK2 (% remaining) @ 0.1 μM” value turned out to be 10%, the “Enzyme degradation CDK2 (% remaining) @ 1 μM” value is 20% and the “Enzyme degradation CDK2 (% remaining) @ 10 μM” value is recorded as 40%. Besides, on CDK9, the “Enzyme degradation CDK9 (% remaining) @ 0.1 μM” value is on record as 30%, the “Enzyme degradation CDK9 (% remaining) @ 1 μM” value came out at 0% and the “Enzyme degradation CDK9 (% remaining) @ 10 μM” value is on record as 0%.

As for `O=C(CNc1ccc2c(c1)C(=O)N(C1CCC(=O)NC1=O)C2=O)NC[C@H]1CC[C@H](CN2CCN(c3ccc(Nc4ncnc5c4ncn5[C@H]4C[C@@H](NC(=O)Cc5ccccc5)C4)cc3)CC2)CC1` (stereo partly drawn) [Compound 220, 2-((2-(2,6-dioxopiperidin-3-yl)-1,3-dioxoisoindolin-5-yl)amino)-N-(((1r,4r)-4-((4-(4-((9-((1s,3s)-3-(2-phenylacetamido)cyclobutyl)-9H-purin-6-yl)amino)phenyl)piperazin-1-yl)methyl)cyclohexyl)methyl)acetamide], at CDK2, the “Enzyme degradation CDK2 (% remaining) @ 0.1 μM” value is 80%, the “Enzyme degradation CDK2 (% remaining) @ 1 μM” value came to 80% and the “Enzyme degradation CDK2 (% remaining) @ 10 μM” value is 60%. For the same compound, on CDK9, the “Enzyme degradation CDK9 (% remaining) @ 0.1 μM” value was 40%, the “Enzyme degradation CDK9 (% remaining) @ 1 μM” value is 0% and the “Enzyme degradation CDK9 (% remaining) @ 10 μM” value is 0%.

With `O=C1CC[C@H](N2C(=O)c3cccc(N4CCC(CN5CCN(c6ccc(Nc7ncnc8c7ncn8[C@H]7C[C@@H](NC(=O)c8c(Cl)cccc8Cl)C7)cc6)CC5)CC4)c3C2=O)C(=O)N1` [Compound 167, 2,6-dichloro-N-((1s,3s)-3-(6-((4-(4-((1-(2-(2,6-dioxopiperidin-3-yl)-1,3-dioxoisoindolin-4-yl)piperidin-4-yl)methyl)piperazin-1-yl)phenyl)amino)-9H-purin-9-yl)cyclobutyl)benzamide], at CDK2, the “Enzyme degradation CDK2 (% remaining) @ 0.1 μM” value is given as 30%, the “Enzyme degradation CDK2 (% remaining) @ 1 μM” value is listed as 40% and the “Enzyme degradation CDK2 (% remaining) @ 10 μM” value was 30%. For the same compound, on CDK9, the “Enzyme degradation CDK9 (% remaining) @ 0.1 μM” value is 0/0/0%, the “Enzyme degradation CDK9 (% remaining) @ 1 μM” value is on record as 0/0/0% and the “Enzyme degradation CDK9 (% remaining) @ 10 μM” value was 0/0/0%.

In the case of `O=C1CC[C@H](n2nnc3ccc(N4CCC(CN5CCN(c6ccc(Nc7ncnc8c7ncn8C7CC(NC(=O)c8cccc(Cl)n8)C7)cc6)CC5)CC4)cc3c2=O)C(=O)N1` (stereo partly drawn) [Compound 417, 6-chloro-N-((1s,3s)-3-(6-((4-(4-((1-(3-(2,6-dioxopiperidin-3-yl)-4-oxo-3,4-dihydrobenzo[d][1,2,3]triazin-6-yl)piperidin-4-yl)methyl)piperazin-1-yl)phenyl)amino)-9H-purin-9-yl)cyclobutyl)picolinamide], on CDK2, the “Enzyme degradation CDK2 (% remaining) @ 0.1 μM” value is 10%, the “Enzyme degradation CDK2 (% remaining) @ 1 μM” value amounted to 0% and the “Enzyme degradation CDK2 (% remaining) @ 10 μM” value is listed as 0%. At CDK9, the “Enzyme degradation CDK9 (% remaining) @ 0.1 μM” value is on record as 10/10/10%, the “Enzyme degradation CDK9 (% remaining) @ 1 μM” value was 10/10/10% and the “Enzyme degradation CDK9 (% remaining) @ 10 μM” value is on record as 10/10/10%.

`O=C1CC[C@H](N2C(=O)c3ccc(N4CCC(C(=O)N5CCN(CCCC6CCN(c7ccc(Nc8ncnc9c8ncn9[C@H]8C[C@@H](NC(=O)Cc9ccccc9)C8)cc7)CC6)CC5)CC4)cc3C2=O)C(=O)N1` [Compound 367, N-((1s,3s)-3-(6-((4-(4-(3-(4-(1-(2-(2,6-dioxopiperidin-3-yl)-1,3-dioxoisoindolin-5-yl)piperidin-4-carbonyl)piperazin-1-yl)propyl)piperidin-1-yl)phenyl)amino)-9H-purin-9-yl)cyclobutyl)-2-phenylacetamide]: at CDK2, the “Enzyme degradation CDK2 (% remaining) @ 0.1 μM” value came out at 10%, the “Enzyme degradation CDK2 (% remaining) @ 1 μM” value came to 0% and the “Enzyme degradation CDK2 (% remaining) @ 10 μM” value was found to be 0%. In addition, at CDK9, the “Enzyme degradation CDK9 (% remaining) @ 0.1 μM” value is on record as 10%, the “Enzyme degradation CDK9 (% remaining) @ 1 μM” value was 0% and the “Enzyme degradation CDK9 (% remaining) @ 10 μM” value came out at 0%.

`O=C1CC[C@H](N2C(=O)c3ccc(N4CCN(CC5CCN(c6ccc(Nc7ncnc8c7ncn8C7CC(NC(=O)Cc8ccccc8)C7)cc6)CC5)CC4)cc3C2=O)C(=O)N1` (stereo partly drawn) [Compound 319, N-((1s,3s)-3-(6-((4-(4-((4-(2-(2,6-dioxopiperidin-3-yl)-1,3-dioxoisoindolin-5-yl)piperazin-1-yl)methyl)piperidin-1-yl)phenyl)amino)-9H-purin-9-yl)cyclobutyl)-2-phenylacetamide]: at CDK2, the “Enzyme degradation CDK2 (% remaining) @ 0.1 μM” value is 10%, the “Enzyme degradation CDK2 (% remaining) @ 1 μM” value came to 0% and the “Enzyme degradation CDK2 (% remaining) @ 10 μM” value stood at 0%. Moreover, at CDK9, the “Enzyme degradation CDK9 (% remaining) @ 0.1 μM” value worked out at 70%, the “Enzyme degradation CDK9 (% remaining) @ 1 μM” value was found to be 0% and the “Enzyme degradation CDK9 (% remaining) @ 10 μM” value was determined as 0%.

Values taken from patent publication US20260125382A1, “COMPOUNDS FOR INHIBITING OR DEGRADING CDK2 AND/OR CDK9 AND MEDICINAL USE THEREOF” (KOREA RESEARCH INSTITUTE OF CHEMICAL TECHNOLOGY, priority 2022, published 2026).
